The source of these data is patent US20260374756A1, “HETEROCYCLIC COMPOUNDS AS INHIBITORS OF MONOACYLGLYCEROL LIPASE (MAGL)” (Hoffmann-La Roche Inc., priority 2022, published 2026).

The target of the test is T1, hMAGL (Homo sapiens, UniProt Q99685).
T1 sequence (Q99685 1-303): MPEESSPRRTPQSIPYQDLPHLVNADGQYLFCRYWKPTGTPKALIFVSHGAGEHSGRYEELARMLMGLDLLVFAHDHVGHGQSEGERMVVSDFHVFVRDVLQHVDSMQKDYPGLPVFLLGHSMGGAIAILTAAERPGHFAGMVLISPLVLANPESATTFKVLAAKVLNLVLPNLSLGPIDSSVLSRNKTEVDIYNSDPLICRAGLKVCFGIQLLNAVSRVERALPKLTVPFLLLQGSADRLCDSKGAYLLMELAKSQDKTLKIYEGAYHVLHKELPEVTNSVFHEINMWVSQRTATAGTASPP
The test is described as follows: 2-AG assay: MAGL inhibition, hydrolysis of 2-arachidonoylglycerol to arachidonic acid followed by mass spectrometry. The class given is biochemical. Summed up: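 Read-out is LC-MS/MS of arachidonic acid released from 2-arachidonoylglycerol (8 μM final), normalised to d8-arachidonic acid internal standard after acetonitrile quench. Enzyme […] and compound were pre-mixed 15 min, then reacted 30 min, both at RT, in Tris/EDTA buffer with 0.01% Tween-20 and 2.5% DMSO.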

Broadly, the IC50 is the concentration at which inhibition is half-maximal. A higher IC50 goes with lower potency. Turning to `O=C(N1CC2(CC(Cc3nsc(C(F)(F)F)n3)C2)C1)N1CC2(CC(n3cnc(C4CC4)n3)C2)C1` [Example 21, [6-(3-cyclopropyl-1,2,4-triazol-1-yl)-2-azaspiro[3.3]heptan-2-yl]-[6-[[5-(trifluoromethyl)-1,2,4-thiadiazol-3-yl]methyl]-2-azaspiro[3.3]heptan-2-yl]methanone], 0.1 nM corresponded to half-maximal inhibition (IC50).

Compound `O=C(N1CC2(CC(Cc3n[nH]c(C4(C(F)(F)F)CC4)n3)C2)C1)N1CC2(CC(n3cnc(C(F)F)n3)C2)C1` [Example 335, [6-[3-(difluoromethyl)-1,2,4-triazol-1-yl]-2-azaspiro[3.3]heptan-2-yl]-[6-[[5-[1-(trifluoromethyl)cyclopropyl]-1H-1,2,4-triazol-3-yl]methyl]-2-azaspiro[3.3]heptan-2-yl]methanone] registered a half-maximal inhibitory concentration (IC50) of 9.06 nM. The value for `O=C(N1CC2(CC(n3cnc(C(F)(F)F)n3)C2)C1)N1CC2(CN(Cc3cnc(C(F)(F)F)o3)C2)C1` [Example 211, [6-[[2-(trifluoromethyl)oxazol-5-yl]methyl]-2,6-diazaspiro[3.3]heptan-2-yl]-[6-[3-(trifluoromethyl)-1,2,4-triazol-1-yl]-2-azaspiro[3.3]heptan-2-yl]methanone] was 52.9 nM. On to `Cn1ncc(OC2CC3(C2)CN(C(=O)N2CC4(CC(n5cnc(C6CC6)n5)C4)C2)C3)c1C(F)(F)F` [Example 247, [6-(3-cyclopropyl-1,2,4-triazol-1-yl)-2-azaspiro[3.3]heptan-2-yl]-[6-[1-methyl-5-(trifluoromethyl)pyrazol-4-yl]oxy-2-azaspiro[3.3]heptan-2-yl]methanone], for which half-maximal inhibition (IC50) required 0.92 nM. As for `O=C(N1CC2(CC(Cc3cc(C(F)(F)F)n[nH]3)C2)C1)N1CC2(CC(c3cc(C4CC4)n[nH]3)C2)C1` [Example 297, [6-(3-cyclopropyl-1H-pyrazol-5-yl)-2-azaspiro[3.3]heptan-2-yl]-[6-[[3-(trifluoromethyl)-1H-pyrazol-5-yl]methyl]-2-azaspiro[3.3]heptan-2-yl]methanone], the midpoint of inhibition, the IC50, lay at 0.12 nM. Then `O=C(N1CC2(CC(Cc3n[nH]c(C4CC4)n3)C2)C1)N1CC2(CC(n3cnc(C(F)F)n3)C2)C1` [Example 318, [6-[(5-cyclopropyl-1H-1,2,4-triazol-3-yl)methyl]-2-azaspiro[3.3]heptan-2-yl]-[6-[3-(difluoromethyl)-1,2,4-triazol-1-yl]-2-azaspiro[3.3]heptan-2-yl]methanone], with 62.8 nM. Then `O=C(N1CC2(CC(Cc3nc(C(F)(F)F)ns3)C2)C1)N1CC2(CC(n3cnc(C(F)(F)F)n3)C2)C1` [Example 15, [6-[[3-(trifluoromethyl)-1,2,4-thiadiazol-5-yl]methyl]-2-azaspiro[3.3]heptan-2-yl]-[6-[3-(trifluoromethyl)-1,2,4-triazol-1-yl]-2-azaspiro[3.3]heptan-2-yl]methanone], with 2.25 nM. Turning to `O=C(N1CC2(CC(n3cnc(C4CC4)n3)C2)C1)N1CC2(CN(Cc3cnn(C(F)(F)F)c3)C2)C1` [Example 182, [6-(3-cyclopropyl-1,2,4-triazol-1-yl)-2-azaspiro[3.3]heptan-2-yl]-[6-[[1-(trifluoromethyl)pyrazol-4-yl]methyl]-2,6-diazaspiro[3.3]heptan-2-yl]methanone], the midpoint of inhibition, the IC50, lay at 33.9 nM.

`Cn1ncc(CN2CC3(C2)CN(C(=O)N2CC4(CC(n5cnc(C(F)(F)F)n5)C4)C2)C3)c1C(F)(F)F` [Example 164, [6-[[1-methyl-5-(trifluoromethyl)pyrazol-4-yl]methyl]-2,6-diazaspiro[3.3]heptan-2-yl]-[6-[3-(trifluoromethyl)-1,2,4-triazol-1-yl]-2-azaspiro[3.3]heptan-2-yl]methanone]: the 50% inhibitory concentration (IC50) is 27.3 nM.

Consider `O=C(N1CC2(CCC(Cc3nnc(C(F)(F)F)[nH]3)CC2)C1)N1CC2(CC(n3cnc(C(F)(F)F)n3)C2)C1` [Example 34, [6-[3-(trifluoromethyl)-1,2,4-triazol-1-yl]-2-azaspiro[3.3]heptan-2-yl]-[7-[[5-(trifluoromethyl)-4H-1,2,4-triazol-3-yl]methyl]-2-azaspiro[3.5]nonan-2-yl]methanone], for which the midpoint of inhibition, the IC50, lay at 21.8 nM.

`O=C(N1CC2(CCC(Cc3nnc(C(F)(F)F)[nH]3)CC2)C1)N1CC2(CC(n3cnc(C4(O)CC4)n3)C2)C1` [Example 35, [6-[3-(1-hydroxycyclopropyl)-1,2,4-triazol-1-yl]-2-azaspiro[3.3]heptan-2-yl]-[7-[[5-(trifluoromethyl)-4H-1,2,4-triazol-3-yl]methyl]-2-azaspiro[3.5]nonan-2-yl]methanone]: 114 nM corresponded to half-maximal inhibition (IC50).

The compound `O=C(N1CC2(CC(n3cnc(C4CC4)n3)C2)C1)N1CC2(CN(Cc3nc(C4(C(F)(F)F)CC4)no3)C2)C1` [Example 338, [6-(3-cyclopropyl-1,2,4-triazol-1-yl)-2-azaspiro[3.3]heptan-2-yl]-[6-[[3-[1-(trifluoromethyl)cyclopropyl]-1,2,4-oxadiazol-5-yl]methyl]-2,6-diazaspiro[3.3]heptan-2-yl]methanone] gave an IC50 of 4.03 nM. Take `O=C(N1CC2(CC(n3cnc(C(F)(F)F)n3)C2)C1)N1CC2(CN(Cc3nc[nH]c3C(F)(F)F)C2)C1` [Example 237, [6-[[5-(trifluoromethyl)-1H-imidazol-4-yl]methyl]-2,6-diazaspiro[3.3]heptan-2-yl]-[6-[3-(trifluoromethyl)-1,2,4-triazol-1-yl]-2-azaspiro[3.3]heptan-2-yl]methanone]: it took 158 nM to reach half-maximal inhibition (IC50). Then `CS(=O)(=O)c1cnn(CC2CC3(C2)CN(C(=O)N2CC4(CC(n5cnc(C(F)(F)F)n5)C4)C2)C3)c1` [Example 327, [6-[(4-mesylpyrazol-1-yl)methyl]-2-azaspiro[3.3]heptan-2-yl]-[6-[3-(trifluoromethyl)-1,2,4-triazol-1-yl]-2-azaspiro[3.3]heptan-2-yl]methanone], with 22.2 nM; and `O=C(N1CC2(CC(Cc3nc(C(F)(F)F)ns3)C2)C1)N1CC2(CC(n3cnc(C4(O)CC4)n3)C2)C1` [Example 17, [6-[3-(1-hydroxycyclopropyl)-1,2,4-triazol-1-yl]-2-azaspiro[3.3]heptan-2-yl]-[6-[[3-(trifluoromethyl)-1,2,4-thiadiazol-5-yl]methyl]-2-azaspiro[3.3]heptan-2-yl]methanone], with 17.5 nM; and `Cc1nn(CC(F)(F)F)cc1CN1CC2(C1)CN(C(=O)N1CC3(CC(n4cnc(C5CC5)n4)C3)C1)C2` [Example 113, [6-(3-cyclopropyl-1,2,4-triazol-1-yl)-2-azaspiro[3.3]heptan-2-yl]-[6-[[3-methyl-1-(2,2,2-trifluoroethyl)pyrazol-4-yl]methyl]-2,6-diazaspiro[3.3]heptan-2-yl]methanone], with 133 nM. In turn, `Cc1cc(C(F)F)nn1CC1CC2(C1)CN(C(=O)N1CC3(CC(n4cnc(C5CC5)n4)C3)C1)C2` [Example 95, [6-(3-cyclopropyl-1,2,4-triazol-1-yl)-2-azaspiro[3.3]heptan-2-yl]-[6-[[3-(difluoromethyl)-5-methyl-pyrazol-1-yl]methyl]-2-azaspiro[3.3]heptan-2-yl]methanone] came in with an IC50 of 0.2 nM. `Cn1nc(C(F)(F)F)cc1CN1CC2(C1)CN(C(=O)N1CC3(CC(n4cnc(C(F)(F)F)n4)C3)C1)C2` [Example 166]: the IC50 came out at 20.3 nM. `Cn1ncc(C(F)(F)F)c1CC1CC2(C1)CN(C(=O)N1CC3(CC(n4cnc(C5(O)CC5)n4)C3)C1)C2` [Example 3] gave an IC50 of 2.21 nM. Take `Cc1onc(C2CC2)c1CN1CC2(C1)CN(C(=O)N1CC3(CC(n4cnc(C5(O)CC5)n4)C3)C1)C2` [Example 269, [6-[(3-cyclopropyl-5-methyl-isoxazol-4-yl)methyl]-2,6-diazaspiro[3.3]heptan-2-yl]-[6-[3-(1-hydroxycyclopropyl)-1,2,4-triazol-1-yl]-2-azaspiro[3.3]heptan-2-yl]methanone]: the half-maximal inhibitory concentration (IC50) is 311 nM. `O=C(N1CC2(CCN(Cc3cc(C(F)(F)F)[nH]n3)CC2)C1)N1CC2(CC(n3cnc(C(F)(F)F)n3)C2)C1` [Example 28]: the IC50 worked out at 20.5 nM. As to `O=C(N1CC2(CC(Cn3cnc(C(F)(F)F)n3)C2)C1)N1CC2(CC(n3cnc(C4CC4)n3)C2)C1` [Example 127, [6-(3-cyclopropyl-1,2,4-triazol-1-yl)-2-azaspiro[3.3]heptan-2-yl]-[6-[[3-(trifluoromethyl)-1,2,4-triazol-1-yl]methyl]-2-azaspiro[3.3]heptan-2-yl]methanone], the IC50 was determined as 1.06 nM.

In turn, `O=C(N1CC2(CC(n3cnc(C(F)(F)F)n3)C2)C1)N1CC2(CN(Cc3cc(C(F)(F)F)[nH]n3)C2)C1` [Example 241, [6-[[5-(trifluoromethyl)-1H-pyrazol-3-yl]methyl]-2,6-diazaspiro[3.3]heptan-2-yl]-[6-[3-(trifluoromethyl)-1,2,4-triazol-1-yl]-2-azaspiro[3.3]heptan-2-yl]methanone] showed a half-inhibitory concentration (IC50) of 18.7 nM. Then `O=C(N1CC2(CC(c3cc(C4CC4)n[nH]3)C2)C1)N1CC2(CN(Cc3cnn(C(F)(F)F)c3)C2)C1` [Example 180, [6-(3-cyclopropyl-1H-pyrazol-5-yl)-2-azaspiro[3.3]heptan-2-yl]-[6-[[1-(trifluoromethyl)pyrazol-4-yl]methyl]-2,6-diazaspiro[3.3]heptan-2-yl]methanone], with 23.4 nM; and `O=C(N1CC2(CCN(Cc3cc(C(F)(F)F)[nH]n3)CC2)C1)N1CC2(CC(n3cnc(C4CC4)n3)C2)C1` [Example 29, [6-(3-cyclopropyl-1,2,4-triazol-1-yl)-2-azaspiro[3.3]heptan-2-yl]-[7-[[5-(trifluoromethyl)-1H-pyrazol-3-yl]methyl]-2,7-diazaspiro[3.5]nonan-2-yl]methanone], with 4.2 nM.
